Test results reported in patent US10351566B2, “Therapeutic compounds for pain and synthesis thereof” (priority 2015, dated 2019).
Where two headings read alike, the source gives them in different places.

How the values were obtained:
14-3-3σ = 14-3-3σ expression in plasma and hind paw skin of Taxol dosed mice (Somascan); type: in vivo
Experimental: The Taxol model was used in order to investigate the MoA of Formula 1.
Animals showing chemotherapy-induced pain following repeated doses of taxol were treated with either vehicle gabapentin or Formula 1. Plasma was collected following the first dose of the test items and after 7 days of daily treatment. Skin from hind paws were also collected following 7 days of daily treatment. The tissues were processed and the expression levels on 1310 proteins were assessed (Somascan provided by SomaLogic, Inc., Boulder, Colo.).
Three statistical methods were used to identify protein expression that discriminated between Formula 1, gabapentin and vehicle on day 8, following a single dose, and on study day 14 following multiple dosing.
A comparison between day 8 and day 14 within each group was also performed. All methods were conducted on scaled data. First, a Student's t-test was performed in order to compare proteins between groups. Second, the LASSO (least absolute shrinkage and selection operator) method was applied. This is a regression technique that simultaneously performs variable selection and model coefficient modification. These models used group as the outcome and all 1310 proteins as the starting predictors. LASSO was then tuned to shrink unimportant coefficients to zero, leaving approximately the ten most important predictors of (or discriminators between) the groups. […]

[1] = type: in vitro ADME; settings: rat plasma
Experimental: (§1) Formula 1 was stable in both mouse and human plasma, with t90 values greater than 4 h, whereas it was unstable in rat plasma, with a t90 of less than 1 h (t90 should be greater than 4 h in order to be considered stable). Most of the efficacy and safety pharmacology was therefore run in mice.

human plasma = type: in vitro ADME
Experimental: as §1

mouse plasma = type: in vitro ADME
Experimental: as §1

[2] = type: in vivo, mice
Experimental: (§2) At 4 days, vehicle-treated animals gained approximately 1% body weight, going from 25.24±0.74 g to 25.50±0.64 g. Formula 1 treated animals went from 25.28±1.04 g to 25.82±1.25 g.
Animals treated with Formula 1 at a dose of 10 mg/kg IP for a period of 31 days gained […] body weight (changing from 21.44±0.18 g to 25.49±0.46 g). Vehicle treated animals gained […] body weight (changing from 21.45±0.19 g to 23.97±0.62 g; p=0.07), therefore no significant changes were found.

[3] = type: in vivo; settings: naïve rats, dosing for 7 days
Text: as §2

[4] = type: in vivo; settings: naïve mice, 10 mg/kg IP
Experimental: Changes in responses of normal withdrawal threshold to heat and cold stimuli in naïve animals following drug treatment may reflect a CNS effect, as in the case of cannabinoids or opioids. Therefore, the response of the naïve mice post-Formula 1 administration at a dose of 10 mg/kg IP was assessed (Table 5).

[5] = tested on: CCI-induced neuropathic pain; test: Chronic constriction injury (CCI) model in mice, SC route; type: in vivo; settings: for Dose of maximum activity / Duration of activity at maximum effect / Level of activity (% of maximum effect-baseline) / Peak of activity (T): CCl model, mice
Experimental: Study outline in brief: The sciatic nerve of mice was exposed under anesthesia, and 3 loose ligations were placed around the nerve. Animals were allowed to recover for 3 days. Tactile allodynia (von Frey testing) and thermal (hot at 50±1° C. and cold at 2±1° C.) hyperalgesia were then assessed. Animals that experienced tactile allodynia were assigned to their treatment groups (vehicle, gabapentin and Formula 1 at different doses). Animals were subsequently treated daily for a period of 5 days with either vehicle or Formula 1 at different doses. Gabapentin at a dose of 150 mg/kg was dosed only on days of testing (day 3 and day 7).

[6] = tested on: Taxol-induced neuropathic pain; test: Taxol-induced neuropathic pain in the rat, per oral; type: in vivo; settings: Taxol rats
Experimental: Study outline in brief: Taxol was administered daily for a period of 17 days (day 0 to day 16). On day 16, the withdrawal force was evaluated using the von Fey test. The animals experienced a reduction of more than 60% in the withdrawal force following repeated Taxol dosing. After a single treatment with Formula 1 at a dose of 50 mg/kg, a full reversal was recorded, i.e. the withdrawal force was similar to the values recorded prior to Taxol dosing commencement. The duration of the analgesic activity was at least 6 h.

[7] = tested on: CCI-induced neuropathic pain; test: CCI-induced neuropathic pain in the rat, oral; type: in vivo; settings: CCI rats
Experimental: Study plan in brief: SD male rats were operated as described by Bennet and Xie7. On study day 7, the sensitivity of the animals to von Frey was assessed. […] The animals were then dosed with either vehicle, gabapentin or Formula 1. Treatment with Formula 1 was not effective 2 h post-single dose.

[8] = tested on: Taxol-induced neuropathic pain; test: Taxol-induced neuropathic pain in mice, oral route; type: in vivo; settings: oral 50 mg/kg, study day 14, repeated daily dosing day 8 to day 14

## CC(C)(C)C(=O)O[C@@H]1[C@@H]2[C@H]3C[C@H](C[C@@H]1N3Cc1ccccn1)CN2C(=O)CC(F)(F)F (relative stereo) [Formula 1, (2S*,3S*,3aS*,6R*,7aR*)-1-(pyridin-2-ylmethyl)-4-(3,3,3-trifluoropropanoyl)octahydro-1H-2,6-methanopyrrolo[3,2-b]pyridin-3-yl pivalate]
14-3-3σ; hind plantar skin, study day 14, repeated dosing, vs. vehicle
  14-3-3σ expression in the skin: significantly reduced
14-3-3σ; plasma, day 8 to day 14, daily treatment, Taxol dosed mice, vs. naïve animals
  relative decrease in stratifin (14-3-3σ): ~50%
[1]
  t90: less than 1 h
Human plasma
  t90: greater than 4 h
Mouse plasma
  t90: greater than 4 h
[2]; 10 mg/kg IP for 31 days
  body weight at end: 25.49 ± 0.46 g
  body weight at start: 21.44 ± 0.18 g
  body weight gained: 15.64%
[2]; 4-day observation
  body weight at 4 days: 25.82 ± 1.25 g
  body weight at start: 25.28 ± 1.04 g
[2]; naïve mice, dosing for 31 days
  effect on body weight gain: did not affect body weight gain
[3]
  effect on body weight gain: did not affect body weight gain
[4]
  Response to cold stimuli (2 ± 1° C. ): 20.6 ± 11.39 s
  Response to heat stimuli (50 ± 1° C. ): 12.87 ± 2.59 s
  basal response to cold or heat stimuli: not effective in altering the basal response
[5]; CCI mice, SC
  effect on response time in the hotplate test: not significant
[5]; CCI mice, SC 30 mg/kg and 60 mg/kg
  response time to cold stimuli: increased response time to cold stimuli
[5]; CCI mice, SC 60 mg/kg, daily repeated treatment
  withdrawal force (von Frey): significant increase in the withdrawal force
[5]; CCI mice, SC, following a single dose
  time of peak activity on cold response: 2 h
[5]; CCI mice, SC, post-dosing following repeated daily dosing
  time of peak activity on cold response: 2 h
[5]; CCI mice, SC, repeated dosing
  tolerance effect: No tolerance effect was observed
[5]; SC, first SC line
  Dose of maximum activity: 60 mg/kg
  Duration of activity at maximum effect: >4 H
  Level of activity (% of maximum effect-baseline): 43%
  Peak of activity (T): 2 H
[5]; SC, second SC line (readout not given)
  Level of activity (% of maximum effect-baseline): 100%
[5]; SC, second SC line
  Dose of maximum activity: 30 mg/kg
  Duration of activity at maximum effect: >4 H
  Peak of activity (T): 2 H
[6]
  body weight loss following Taxol dosing: the rate of weight loss was reduced
[6]; oral 50 mg/kg
  duration of the analgesic activity: at least 6 h
  withdrawal force vs. vehicle 24 h post-dosing: no significant difference
[6]; single oral treatment 50 mg/kg
  withdrawal force (von Frey): full reversal
[7]
  change of activity on continuous dosing: increase in compound activity
[7]; 2 h post-single dose
  withdrawal force (von Frey): not effective
[7]; daily oral 50 mg/kg, study day 11, 2 h post-treatment
  withdrawal threshold: significant increase in the withdrawal threshold
[8]
  withdrawal force: This activity was maintained
